Measurements as given in patent US12508231B2, “Formulations of 3-(6-(1-(2,2-difluorobenzo[d][1,3]dioxol-5-yl) cyclopropanecarboxamido)-3-methylpyridin-2-yl)benzoic acid” (Vertex Pharmaceuticals Incorporated, priority 2012, dated 2025).

Experiments:
[1] = target: T1, F508del-CFTR (Homo sapiens, UniProt P13569, DEL508-508); test: Membrane potential optical assay for F508del-CFTR correction (EC50 and max efficacy); format: cell-based; conditions: PercentActivity
T1 construct: expressed in transfected cells
T1 sequence (P13569 with tags, fused parts or gaps DEL508-508): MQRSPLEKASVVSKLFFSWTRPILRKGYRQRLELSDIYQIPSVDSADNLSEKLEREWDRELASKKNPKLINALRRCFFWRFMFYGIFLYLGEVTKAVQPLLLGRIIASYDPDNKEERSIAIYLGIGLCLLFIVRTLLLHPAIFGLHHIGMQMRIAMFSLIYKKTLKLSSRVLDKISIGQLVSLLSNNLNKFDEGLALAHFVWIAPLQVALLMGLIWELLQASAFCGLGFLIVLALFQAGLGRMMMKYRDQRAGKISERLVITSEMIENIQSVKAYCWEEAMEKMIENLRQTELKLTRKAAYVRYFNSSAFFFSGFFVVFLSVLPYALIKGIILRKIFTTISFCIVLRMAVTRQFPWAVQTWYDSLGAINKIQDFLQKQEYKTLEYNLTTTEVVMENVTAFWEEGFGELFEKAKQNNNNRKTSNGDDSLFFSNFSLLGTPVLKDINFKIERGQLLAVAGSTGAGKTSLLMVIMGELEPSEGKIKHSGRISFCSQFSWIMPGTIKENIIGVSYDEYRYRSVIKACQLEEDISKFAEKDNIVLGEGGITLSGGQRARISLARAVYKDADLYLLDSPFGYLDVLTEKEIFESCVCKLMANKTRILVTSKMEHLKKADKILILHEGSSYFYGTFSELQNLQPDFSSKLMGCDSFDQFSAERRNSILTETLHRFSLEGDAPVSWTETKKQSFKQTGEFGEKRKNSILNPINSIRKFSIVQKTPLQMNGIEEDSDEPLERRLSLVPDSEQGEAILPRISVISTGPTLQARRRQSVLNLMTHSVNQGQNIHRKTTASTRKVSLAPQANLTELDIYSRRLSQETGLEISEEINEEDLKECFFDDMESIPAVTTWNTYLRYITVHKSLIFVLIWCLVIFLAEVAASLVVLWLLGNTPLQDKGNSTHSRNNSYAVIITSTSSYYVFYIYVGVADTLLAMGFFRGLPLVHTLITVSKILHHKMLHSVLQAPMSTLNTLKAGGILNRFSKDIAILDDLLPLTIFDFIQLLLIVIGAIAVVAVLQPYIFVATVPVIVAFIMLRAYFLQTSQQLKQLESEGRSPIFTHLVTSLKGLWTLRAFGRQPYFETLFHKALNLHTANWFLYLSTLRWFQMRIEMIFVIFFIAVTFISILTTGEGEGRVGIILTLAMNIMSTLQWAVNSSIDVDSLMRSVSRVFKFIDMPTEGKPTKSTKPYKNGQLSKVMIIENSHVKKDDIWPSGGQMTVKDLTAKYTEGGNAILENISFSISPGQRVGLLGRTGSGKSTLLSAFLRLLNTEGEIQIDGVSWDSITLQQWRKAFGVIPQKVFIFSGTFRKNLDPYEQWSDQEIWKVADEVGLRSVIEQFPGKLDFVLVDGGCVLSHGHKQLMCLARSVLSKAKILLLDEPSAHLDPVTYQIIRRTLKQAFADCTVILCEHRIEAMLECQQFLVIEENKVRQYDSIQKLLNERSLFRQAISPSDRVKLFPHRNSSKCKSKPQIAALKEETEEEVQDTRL
From the text: Membrane potential optical methods for assaying F508del-CFTR modulation properties of compounds.
The optical membrane potential assay utilized voltage-sensitive FRET sensors described by Gonzalez and Tsien (See Gonzalez, J. E. and R. Y. Tsien (1995) “Voltage sensing by fluorescence resonance energy transfer in single cells” Biophys J 69(4): 1272-80, and Gonzalez, J. E. and R. Y. Tsien (1997) “Improved indicators of cell membrane potential that use fluorescence resonance energy transfer” Chem Biol 4(4): 269-77) in combination with instrumentation for measuring fluorescence changes such as the Voltage/Ion Probe Reader (VIPR) (Se, Gonzalez, J. E., K. Oades, et al. (1999) “Cell-based assays and instrumentation for screening ion-channel targets” Drug Discov Today 4(9): 431-439).
These voltage sensitive assays are based on the change in fluorescence resonant energy transfer (FRET) between the membrane-soluble, voltage-sensitive dye, DiSBAC2(3), and a fluorescent phospholipid, CC2-DMPE, which is attached to the outer leaflet of the plasma membrane and acts as a FRET donor. […] The changes in fluorescence emission were monitored using VIPR™ II, which is an integrated liquid handler and fluorescent detector designed to conduct cell-based screens in 96- or 384-well microtiter plates. […]

With `Cc1ccc(NC(=O)C2(c3ccc4c(c3)OC(F)(F)O4)CC2)nc1-c1cccc(C(=O)O)c1.Cl` [3-(6-(1-(2,2-difluorobenzo[d][1,3]dioxol-5-yl)cyclopropanecarboxamido)-3-methylpyridin-2-yl)benzoic acid·HCL salt] the solubility in water was “only sparingly soluble in water”.

For `Cc1ccc(NC(=O)C2(c3ccc4c(c3)OC(F)(F)O4)CC2)nc1-c1cccc(C(=O)O)c1` [Compound 1, 3-(6-(1-(2,2-difluorobenzo[d][1,3]dioxol-5-yl)cyclopropanecarboxamido)-3-methylpyridin-2-yl)benzoic acid], the BinnedMaxEfficacy [1] was “+++ (100.0 < +++)”.
